Source: patent US20050255163A1, “Co-grinding process for the preparation of a ternary composition” (priority 2002, published 2005)
≈ marks a conversion by molar mass, not a printed value.

Key:
Type in all cases: physicochemical
[1] = DSC enthalpy of fusion and percentage residual crystallinity of co-ground compositions; conditions: enthalpy of fusion of the active substance as such, before co-grinding
Text: The compositions obtained by operating according to the examples reported below have been characterised by DSC and from the enthalpy of fusion the percentage residual crystallinity has been calculated.

[2] = Solubilisation kinetics under non sink conditions; conditions: thermodynamic from solid, in 2 minutes, read-out: concentration of DHEA reached (solubilisation kinetics, oversaturation)
Protocol: (§1) The dissolution speed of the DHEA from the ternary composition is markedly greater with respect to that of the DHEA as such, reaching 70% release after 15 minutes and 90% after 60 minutes, against the respective 9% and 20% for DHEA as such. Regarding the kinetics, in the ternary composition, the oversaturation reached by DHEA, which reaches a concentration of over 80 μg/ml in 2 minutes against around 50 μg/ml of DHEA as such, is evident.
(§2) Furthermore, the percentage of active substance released under sink conditions and the solubilisation kinetics under non sink conditions have been determined.

[3] = Percentage of active substance released under sink conditions (dissolution speed)
Protocol: as §1, with “In FIGS. 5 and 6 are reported respectively the dissolution speed curves under sink conditions (% age of active substance released against time) and the to solubilisation kinetics curves under non sink conditions (concentration of active substance against time) of a hydrophobic drug (DHEA)/hydrophilic carrier combination. The” for “The”
as §2

Compound: C[C@]12CC[C@H](O)CC1=CC[C@@H]1[C@@H]2CC[C@]2(C)C(=O)CC[C@@H]12 [DHEA, dehydroepiandrosterone]
- Active Substance Enthalpy [1]: 100 J/g
- solubility kinetic at 2 min [2]: ~50 µg/mL (≈ 173 µM)
- percentage of active substance (DHEA) released ([3]; after 15 minutes): 9%
- percentage of active substance (DHEA) released ([3]; after 60 minutes): 20%

Compound: CC(=O)OCC(=O)[C@@]1(O)CC[C@H]2[C@@H]3CCC4=CC(=O)CC[C@]4(C)[C@H]3[C@@H](O)C[C@@]21C [HCA, hydrocortisone acetate]
- Active Substance Enthalpy [1]: 117.9 J/g

Compound: CC(=O)N[C@@H](CS)C(=O)O [NAC, N-acetyl cystein]
- Active Substance Enthalpy [1]: 192.9 J/g

Compound: Oc1ccc(C=Cc2cc(O)cc(O)c2)cc1 [Resveratrol, resveratrol]
- Active Substance Enthalpy [1]: 317.7 J/g

Compound: Cc1cc(O)c(C2CC3CCC2(C)C3(C)C)cc1C (centres unmarked) [Xibornol, xibornol]
- Active Substance Enthalpy [1]: 92.8 J/g
